The target of experiment [1] is T1, SMYD3 (Homo sapiens (Human), UniProt Q9H7B4). Description: SMYD3 biochemical assay (SMYD3 enzyme assay on MEKK2 protein substrate, 3H-SAM scintillation proximity assay). To be noted: read-out: SMYD3 Biochem IC50. Put shortly: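 Detection used scintillation proximity beads to capture ³H-methylated GST-MEKK2 after quench with 100 uM final cold SAM. The reaction was started by SAM/MEKK2 addition after a 30 min RT compound–enzyme preincubation. Enzyme was tag-free full-length human SMYD3 from E. coli, in buffer of 25 mM Tris-Cl pH 8.0, 1 mM TCEP, 0.005% BSG, 0.005% Tween 20.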
In general terms: In a scintillation proximity assay essentially only radioactivity close to the scintillant gives light.

Experiment [2] has as its target T1, SMYD3. Briefly: SMYD3 cell assay (Trimethyl-MEKK2 In-Cell Western in 293T/17 cells transfected with MEKK2-flag and SMYD3). To be noted: Table 3A; average of n = 1 to n = 50; read-out: SMYD3 cell IC50. Format: cell-based. The source says:
Trimethyl-MEKK2-in-Cell Western Assay
MEM/Glutamax medium, Optimem Reduced Serum medium, penicillin-streptomycin, 0.05% trypsin and 1×D-PBS were purchased from Life Technologies, Grand Island, N.Y., USA. PBS-10× was purchased from Ambion, Life Technologies, Grand Island, N.Y., USA. PBS with Tween 20 (PBST (10×)) was purchased from KPL, Gaithersburg, Md., USA. Tet System FBS-approved FBS US Source was purchased from Clontech, Mountain View, Calif., USA. Odyssey blocking buffer, 800CW goat anti-rabbit IgG (H+L) antibody, 680CW Goat anti-mouse IgG (H+L) and Licor Odyssey infrared scanner were purchased from Licor Biosciences, Lincoln, Nebr., USA. Tri-methyl-Lysine [A260]-MEKK2 antibody, MEKK2 and SMYD3 plasmids were made at Epizyme. Anti-flag monoclonal mouse antibody was purchased from Sigma, St. Louis, Mo., USA. Methanol was purchased from VWR, Franklin, Mass., USA. 10% Tween 20 was purchased from KPL, Inc., Gaithersburg, Md., USA. Fugene was purchased from Promega, Madison, Wis., USA. The Biotek ELx405 was purchased from BioTek, Winooski, Vt., USA. The multidrop combi was purchased from Thermo Scientific, Waltham, Mass., USA.
Cell Treatment, in Cell Western (ICW) for Detection of Trimethyl-Lysine-MEKK2 and MEKK2.
Plasmids were prepared for delivery to cells by first mixing 1350 μL Opti-MEM with Fugene (81 μL) in a sterile Eppendorf and incubated for five minutes at room temperature (RT). […] Entire volume of Opti-MEM/Fugene mixture was then added to a microfuge tube containing DNA plasmid, mixed and then incubated ×15 minutes at RT. […] Medium was then removed, and cells were washed once with PBS in the flask. Trypsin 0.05% (3 mL) was added and cells incubated for three minutes. Room temperature MEM+10% Tet system FBS was added and cells were mixed gently, and counted using the Vi-cell. Cells were seeded at 100,000 cells/mL in 50 μL MEM/10% Tet FBS/Pen/Strep to a 384 well black/clear poly-D-lysine coated plate containing test agent diluted in DMSO. The final top concentration of test compound was 40 μM. […] Plates were incubated ×30 minutes at RT in low-airflow area, followed by incubation at 37° C. under 5% CO2 for 24 hours. Medium was aspirated from all wells of assay plates prior to fixation and permeabilization with ice cold (−20° C.) methanol (90 μL/well) for ten minutes. Plates were rinsed with PBS three times on BioTek ELx405. PBS was removed with a final aspiration, and Odyssey blocking buffer (50 μL/well) was added to each well and incubated for one hour at RT. Primary antibody solution was prepared (anti-trimethyl-MEKK2 at 1:600 dilution plus mouse anti-flag antibody at 1:10,000 dilution in diluent (Odyssey Blocking buffer+0.1% Tween 20)) and 20 μL per well was dispensed using the Multidrop Combi. Assay plates were then sealed with foil, and incubated overnight at 4° C. Plates were washed five times with PBS-Tween (1×) on Biotek ELx405 and blotted on paper towel to remove excess reagent.
First, the ratio for each well was determined by:
Each plate included fourteen control wells of DMSO only treatment (Minimum Inhibition) as well as fourteen control wells for maximum inhibition (Background). The average of the ratio values for each control type was calculated and used to determine the percent inhibition for each test well in the plate. Reference compound was serially diluted two-fold in DMSO for a total of nine test concentrations, beginning at 40 μM. Percent inhibition was calculated (below).
Non-linear regression curves were generated to calculate the IC50 and dose-response relationship using triplicate wells per concentration of compound.

Setting [3] is: Table 3A, average of n = 1 to n = 50.

Structures can show the parent of a compound that is named as a salt.

Broadly, the IC50 is the point on the concentration scale where inhibition reaches its midpoint.

T1 sequence (Q9H7B4 whole entry): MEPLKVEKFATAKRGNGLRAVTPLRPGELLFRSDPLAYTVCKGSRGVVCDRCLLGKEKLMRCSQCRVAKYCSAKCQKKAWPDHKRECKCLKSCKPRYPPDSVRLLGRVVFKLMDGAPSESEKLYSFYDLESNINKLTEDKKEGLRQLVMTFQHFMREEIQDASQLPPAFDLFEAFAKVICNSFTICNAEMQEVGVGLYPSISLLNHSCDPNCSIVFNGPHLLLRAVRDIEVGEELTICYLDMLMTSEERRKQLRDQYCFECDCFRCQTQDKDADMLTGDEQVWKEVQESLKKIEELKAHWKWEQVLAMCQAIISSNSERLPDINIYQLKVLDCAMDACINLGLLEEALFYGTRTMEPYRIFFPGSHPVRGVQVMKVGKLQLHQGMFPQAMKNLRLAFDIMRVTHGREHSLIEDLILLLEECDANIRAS

With `CNC1CCN(S(=O)(=O)N2[C@@H]3CC[C@H]2C[C@@H](NC(=O)c2cc4c(cc2Cl)NC(=O)C4)C3)CC1` [compound 586, 6-chloro-N-((1R,3r,5S)-8-((4-(methylamino)piperidin-1-yl)sulfonyl)-8-azabicyclo[3.2.1]octan-3-yl)-2-oxoindoline-5-carboxamide], the values for the IC50 on SMYD3 [1] (setting [3]) and at SMYD3 [2] were 1.89 nM and 425 nM, respectively.

For the compound `C[C@H]1C[C@@H](NC(=O)c2cc3c(cc2Cl)NC(=O)C3)CCN1S(=O)(=O)c1ccc(C(C)(C)N)cc1` [compound 588, N-((2S,4S)-1-((4-(2-aminopropan-2-yl)phenyl)sulfonyl)-2-methylpiperidin-4-yl)-6-chloro-2-oxoindoline-5-carboxamide], the IC50 on SMYD3 [1] (setting [3]) turned out to be 1.98 nM; on SMYD3 [2], 356 nM.

As for `CNC1CCN(S(=O)(=O)N2[C@@H]3CC[C@H]2C[C@@H](NC(=O)c2ccc4c(c2)CC(=O)N4)C3)CC1` [compound 589, N-((1R,3r,5S)-8-((4-(methylamino)piperidin-1-yl)sulfonyl)-8-azabicyclo[3.2.1]octan-3-yl)-2-oxoindoline-5-carboxamide], the 50% inhibitory concentration (IC50) at SMYD3 [1] (setting [3]) was 2.13 nM; at SMYD3 [2] it was 987 nM.

Turning to `O=C1Cc2cc(C(=O)N[C@H]3C[C@H]4CC[C@@H](C3)N4S(=O)(=O)CC3CCCNC3)ccc2N1` (stereo partly drawn) [compound 590, 2-oxo-N-((1R,3r,5S)-8-((piperidin-3-ylmethyl)sulfonyl)-8-azabicyclo[3.2.1]octan-3-yl)indoline-5-carboxamide], the 50% inhibitory concentration (IC50) at SMYD3 [1] is 2.14 nM; at SMYD3 [2] it was 768 nM.

Take `N[C@H]1CC[C@@H](S(=O)(=O)N2[C@@H]3CC[C@H]2C[C@@H](NC(=O)c2ccc4c(c2)CC(=O)N4)C3)CC1` [compound 591, N-((1R,3R,5S)-8-(((1s,4S)-4-aminocyclohexyl)sulfonyl)-8-azabicyclo[3.2.1]octan-3-yl)-2-oxoindoline-5-carboxamide]: the IC50 came to 2.33 nM on SMYD3 [1] and 2310 nM at SMYD3 [2].

Take `CN(C)C1CCN(S(=O)(=O)N2[C@@H]3CC[C@H]2C[C@@H](NC(=O)c2ccc4c(c2)CC(=O)N4)C3)CC1` [compound 593, N-((1R,3r,5S)-8-((4-(dimethylamino)piperidin-1-yl)sulfonyl)-8-azabicyclo[3.2.1]octan-3-yl)-2-oxoindoline-5-carboxamide]: the results for the half-maximal inhibitory concentration (IC50) at SMYD3 [1] (setting [3]) and at SMYD3 [2] were 2.89 nM and 500 nM, respectively.

As for `CN(C)C1CCN(S(=O)(=O)N2[C@@H]3CC[C@H]2C[C@@H](NC(=O)c2cc4c(cc2Cl)NC(=O)C4)C3)CC1` [compound 594, 6-chloro-N-((1R,3r,5S)-8-((4-(dimethylamino)piperidin-1-yl)sulfonyl)-8-azabicyclo[3.2.1]octan-3-yl)-2-oxoindoline-5-carboxamide], the figures for the IC50 on SMYD3 [1] and on SMYD3 [2] were 3.46 nM and 301 nM, respectively.

As to `O=C1Cc2cc(C(=O)N[C@H]3C[C@H]4CC[C@@H](C3)N4S(=O)(=O)CC3CCNCC3)c(Cl)cc2N1` [compound 596, 6-chloro-2-oxo-N-((1R,3r,5S)-8-((piperidin-4-ylmethyl)sulfonyl)-8-azabicyclo[3.2.1]octan-3-yl)indoline-5-carboxamide], the results for the half-maximal inhibitory concentration (IC50) at SMYD3 [1] (setting [3]) and on SMYD3 [2] were 3.6 nM and 2660 nM, respectively.

Regarding `O=C1Cc2cc(C(=O)N[C@H]3C[C@H]4CC[C@@H](C3)N4S(=O)(=O)CC3CCNCC3)ccc2N1` [compound 597, 2-oxo-N-((1R,3r,5S)-8-((piperidin-4-ylmethyl)sulfonyl)-8-azabicyclo[3.2.1]octan-3-yl)indoline-5-carboxamide], the IC50 at SMYD3 [1] (setting [3]) was 3.98 nM; at SMYD3 [2], 3440 nM.

As to `O=C1Cc2cc(C(=O)N[C@H]3C[C@H]4CC[C@@H](C3)N4S(=O)(=O)C[C@H]3CCCNC3)c(Cl)cc2N1` [compound 598, 6-chloro-2-oxo-N-((1R,3S,5S)-8-((((S)-piperidin-3-yl)methyl)sulfonyl)-8-azabicyclo[3.2.1]octan-3-yl)indoline-5-carboxamide], the half-maximal inhibitory concentration (IC50) on SMYD3 [1] (setting [3]) was 4.12 nM; at SMYD3 [2], 1270 nM.

On to `C[C@H]1C[C@@H](NC(=O)c2ccc3c(c2)CC(=O)N3)CCN1S(=O)(=O)CC1CCNCC1` [compound 599, N-((2S,4S)-2-methyl-1-((piperidin-4-ylmethyl)sulfonyl)piperidin-4-yl)-2-oxoindoline-5-carboxamide], for which the 50% inhibitory concentration (IC50) is 4.42 nM on SMYD3 [1] (setting [3]) and 9490 nM on SMYD3 [2].

`O=C1Cc2cc(C(=O)N[C@H]3C[C@H]4CC[C@@H](C3)N4S(=O)(=O)C[C@@H]3CCCNC3)c(Cl)cc2N1` [compound 600, 6-chloro-2-oxo-N-((1R,3R,5S)-8-((((R)-piperidin-3-yl)methyl)sulfonyl)-8-azabicyclo[3.2.1]octan-3-yl)indoline-5-carboxamide]: the IC50 was 4.99 nM at SMYD3 [1] (setting [3]) and 728 nM at SMYD3 [2].

With `NC1CCN(S(=O)(=O)N2[C@@H]3CC[C@H]2C[C@@H](NC(=O)c2cc4c(cc2Br)NC(=O)C4)C3)CC1` [compound 602, N-((1R,3r,5S)-8-((4-aminopiperidin-1-yl)sulfonyl)-8-azabicyclo[3.2.1]octan-3-yl)-6-bromo-2-oxoindoline-5-carboxamide], the concentration for half-maximal inhibition (IC50) on SMYD3 [1] (setting [3]) is 7.12 nM; at SMYD3 [2], 3730 nM.

As for `C[C@H]1CN(S(=O)(=O)N2CCC(N)CC2)CCC1NC(=O)c1cc2c(cc1Cl)NC(=O)C2` (stereo partly drawn) [compound 603, N-((3S)-1-((4-aminopiperidin-1-yl)sulfonyl)-3-methylpiperidin-4-yl)-6-chloro-2-oxoindoline-5-carboxamide], the IC50 at SMYD3 [1] (setting [3]) amounted to 8.53 nM; on SMYD3 [2] it was 2680 nM.

`CN1C(=O)Cc2cc(C(=O)N[C@H]3C[C@H]4CC[C@@H](C3)N4S(=O)(=O)N3CCC(N)CC3)c(Cl)cc21` [compound 604, N-((1R,3r,5S)-8-((4-aminopiperidin-1-yl)sulfonyl)-8-azabicyclo[3.2.1]octan-3-yl)-6-chloro-1-methyl-2-oxoindoline-5-carboxamide]: the half-maximal inhibitory concentration (IC50) on SMYD3 [1] (setting [3]) was 13.5 nM; at SMYD3 [2], 207 nM.

Take `CCc1cc(C(=O)N[C@H]2CCN(S(=O)(=O)N3CCC(N)CC3)[C@@H](C)C2)ns1` [compound 605, N-((2S,4S)-1-(4-aminopiperidin-1-ylsulfonyl)-2-methylpiperidin-4-yl)-5-ethyl-1,2-thiazole-3-carboxamide Hydrochloride]: the IC50 at SMYD3 [1] turned out to be 15.4 nM; at SMYD3 [2], 201 nM.

As to `Cc1cc2c(cc1C(=O)N[C@H]1C[C@H]3CC[C@@H](C1)N3S(=O)(=O)N1CCC(N)CC1)CC(=O)N2` [compound 606, N-((1R,3r,5S)-8-((4-aminopiperidin-1-yl)sulfonyl)-8-azabicyclo[3.2.1]octan-3-yl)-6-methyl-2-oxoindoline-5-carboxamide], the half-inhibitory concentration (IC50) at SMYD3 [1] (setting [3]) came to 15.6 nM; on SMYD3 [2] it was 1790 nM.

Turning to `C[C@H]1C[C@@H](NC(=O)c2nnc(C3CC3)s2)CCN1S(=O)(=O)N1CCC(N)CC1` [compound 607, N-((2S,4S)-1-((4-aminopiperidin-1-yl)sulfonyl)-2-methylpiperidin-4-yl)-5-cyclopropyl-1,3,4-thiadiazole-2-carboxamide], the concentration for half-maximal inhibition (IC50) on SMYD3 [1] (setting [3]) turned out to be 18.1 nM; at SMYD3 [2], 205 nM.

`C[C@@H]1CN(S(=O)(=O)N2CCC(N)CC2)CC[C@H]1NC(=O)c1cc2c(cc1Cl)NC(=O)C2` [compound 608, N-((3R,4R)-1-((4-aminopiperidin-1-yl)sulfonyl)-3-methylpiperidin-4-yl)-6-chloro-2-oxoindoline-5-carboxamide]: the IC50 at SMYD3 [1] (setting [3]) amounted to 21.4 nM; at SMYD3 [2] it was 6240 nM.

For the origin of these results see patent publication US10266526B2, “Substituted 1,2,3-triazoles as SMYD inhibitors for treating cancer” (EPIZYME, INC., priority 2014, dated 2019).
